Data published in patent US9862998B2, “Conformational probes and methods for sequencing nucleic acids” (Illumina, Inc., priority 2010, dated 2018).
Entries after “also recorded” stand apart in the source; their conditions may differ.

B1: Cy3AF647: RB69V510CE766C polymerase labeled with donor/acceptor pair Cy3/AF647 at cysteine residues (conjugate, UniProt Q38087 1-903, looked up, variant V510C E766C)
DNA-directed DNA polymerase: MKEFYLTVEQIGDSIFERYIDSNGRERTREVEYKPSLFAHCPESQATKYFDIYGKPCTRKLFANMRDASQWIKRMEDIGLEALGMDDFKLAYLSDTYNYEIKYDHTKIRVANFDIEVTSPDGFPEPSQAKHPIDAITHYDSIDDRFYVFDLLNSPYGNVEEWSIEIAAKLQEQGGDEVPSEIIDKIIYMPFDNEKELLMEYLNFWQQKTPVILTGWNVESFDIPYVYNRIKNIFGESTAKRLSPHRKTRVKVIENMYGSREIITLFGISVLDYIDLYKKFSFTNQPSYSLDYISEFELNVGKLKYDGPISKLRESNHQRYISYNIIDVYRVLQIDAKRQFINLSLDMGYYAKIQIQSVFSPIKTWDAIIFNSLKEQNKVIPQGRSHPVQPYPGAFVKEPIPNRYKYVMSFDLTSLYPSIIRQVNISPETIAGTFKVAPLHDYINAVAERPSDVYSCSPNGMMYYKDRDGVVPTEITKVFNQRKEHKGYMLAAQRNGEIIKEALHNPNLSCDEPLDVDYRFDFSDEIKEKIKKLSAKSLNEMLFRAQRTEVAGMTAQINRKLLINSLYGALGNVWFRYYDLRNATAITTFGQMALQWIERKVNEYLNEVCGTEGEAFVLYGDTDSIYVSADKIIDKVGESKFRDTNHWVDFLDKFARERMEPAIDRGFREMCEYMNNKQHLMFMDREAIAGPPLGSKGIGGFWTGKKRYALNVWDMEGTRYAEPKLKIMGLETQKSSTPKAVQKALKECIRRMLQEGEESLQEYFKCFEKEFRQLNYISIASVSSANNIAKYDVGGFPGPKCPFHIRGILTYNRAIKGNIDAPQVVEGEKVYVLPLREGNPFGDKCIAWPSGTEITDLIKDDVLHWMDYTVLLEKTFIKPLEGFTSAAKLDYEKKASLFDMFDF
modifications: Cy3/AF647 dye labels
notes: RB69V510CE766C polymerase labeled with donor/acceptor pair Cy3/AF647 at cysteine residues
B2: CF555AF647: RB69V510CE766C polymerase labeled with donor/acceptor pair CF555/AF647 at cysteine residues (conjugate, UniProt Q38087 1-903, looked up, variant V510C E766C)
DNA-directed DNA polymerase: B1 DNA-directed DNA polymerase
modifications: CF555/AF647 dye labels
notes: RB69V510CE766C polymerase labeled with donor/acceptor pair CF555/AF647 at cysteine residues

Key:
Type in all cases: biochemical
[1] = target: T1, 5-TAMRA Pol β (W325C Pol β) (Homo sapiens, UniProt P06746, W325C); assay: Stopped-flow 5-TAMRA fluorescence detection of nucleotide incorporation by 5-TAMRA Pol β; settings: for amplitudes and durations for the 5-TAMRA emission shift: incorporated at an appropriate position in a template-bound primer, FIG. 10, 11, 13
T1 construct: made in house; host or cells: E. coli BL21(DE3)
Protocol: 5-TAMRA Pol β was prepared as follows. Human Pol β was mutated to replace Tryptophan 325 (in the fingers domain) with cysteine to produce W325C Pol β. Standard mutagenesis techniques were used to produce W325C Pol β as described in Example III. The W325C Pol β was cloned in the pET15b plasmid, expressed in E. coli BL21(DE3) cells and purified as described in Dunlap and Tsai, Biochemistry, 41 (37): 11226-11235 (2002), which is incorporated herein by reference. The purified W325C Pol β was chemically modified to introduce the 5-TAMRA fluorescent dye at cysteine 325, thereby producing 5-TAMRA Pol β.
Conformational changes in the 5-TAMRA Pol β enzyme from the open to closed state can be detected based on a fluorescent emission change from the environmentally sensitive 5-TAMRA dye. The spectral and emission intensity changes from the 5-TAMRA dye when the polymerase changes to the closed state. The 5-TAMRA Pol β enzyme can be bound to a primer-template nucleic acid complex in an open conformation. In the open conformation the 5-TAMRA dye when excited with light at a wavelength of 542 nm will emit fluorescence at a wavelength of 568 nm. However upon binding of an appropriate nucleotide to the 5-TAMRA Pol β-primer-template binary complex, the 5-TAMRA Pol β enzyme changes from the open state to the closed state causing the 5-TAMRA dye to experience a different environment. This change in environment results in a detectable fluorescent emission change from the TAMRA dye at the wavelength of 568 nm. As such, binding of the appropriate nucleotide can be detected as a fluorescent emission change at 568 nm wavelength. Furthermore, differential time durations of the closed state can be used to distinguish different nucleotides that are incorporated into the primer by 5-TAMRA Pol β.
The real-time fluorescence change from 5-TAMRA Pol β was measured in the Applied Photophysics SX20 stopped-flow spectrometer by monitoring changes in 5-TAMRA dye fluorescence following the mixing of the 5-TAMRA Pol β-DNA binary complex with a nucleotide in a reaction buffer containing 50 mM Tris-HCl, pH 7.5, 50 mM KCl, 1 mM Dithiothreitol and 5 mM MgCl2 as described in Example III.
(§1) Dual labeled KF was produced as described in Example III. FRET from dual labeled KF was measured by stopped flow kinetics also as described in Example III. 5-TAMRA Pol β was prepared as described in Example IV. The real time fluorescence change from 5-TAMRA Pol β was measured by stopped flow kinetics also as described in Example IV.

[2] = target: Alexa 488 and 532 dual-labeled KF (K550C/L744C/C907G Klenow Fragment) (Escherichia coli, UniProt P00582, C907G/K550C/L744C); design: made in house; host or cells: E. coli BL21(DE3); settings: for FRET duration, correct versus incorrect incorporation: position complementary to cytosine, dGTP correct, dCTP incorrect, FIG. 8; for AF488 fluorescence duration measured for the incorporation: dTTP versus Gamma-ANS-dTTP, FIG. 12; for time durations of the FRET signal for incorporation into the primer: AF488 donor fluorescence, stopped flow, FIG. 5-7
Excerpt: The Klenow Fragments (KF) was produced as follows. KF was mutated to replace cysteine 907 with glycine, to replace leucine 744 (in the fingers domain) with cysteine and to replace lysine 550 (in the thumb domain) with cysteine, thereby producing K550C/L744C/C907G KF. Standard mutagenesis techniques were used to produce K550C/L744C/C907G KF as described in the manual of the QuikChange® site-directed mutagenesis kit from Stratagene/Agilent (La Jolla, Calif.). The K550C/L744C/C907G KF was cloned into the pET15b plasmid using the NdeI and BamHI restriction sites, and expressed in E. coli BL21(DE3) cells. The K550C/L744C/[…] KF was purified as described in Joyce, et al. Biochemistry, 47 (23): 6103-6116 (2008), which is incorporated herein by reference. The purified K550C/L744C/C907C KF was chemically modified using the thiol-reactive maleimide to introduce the Alexa488 fluorescent donor dye at cysteine 550
Conformational changes in the dual labeled KF enzyme from the open to closed state can be detected based on fluorescence resonance energy transfer (FRET) between the AF488 fluorescent donor dye on the thumb domain and AF532 fluorescence acceptor dye on the fingers domain. The KF enzyme can be bound to a primer-template nucleic acid complex in an open conformation. In the open conformation the AF488 fluorescent donor dye when excited with light at a wavelength of 495 nm will emit fluorescence at a wavelength of 519 nm. However, upon binding of an appropriate nucleotide to the dual labeled KF-template-primer complex the dual labeled KF enzyme changes from the open state to the closed state. The closed state brings the AF488 fluorescent donor dye on the thumb domain into proximity with the AF532 fluorescence acceptor dye on the finger domain such that the AF488 fluorescent donor dye when excited transfers energy to the AF532 fluorescence acceptor dye. This FRET results in a detectable emission from the AF532 fluorescence acceptor dye at a wavelength of […]. As such, binding of the appropriate nucleotide can be detected as increased emission at 554 nm wavelength. Furthermore, differential time durations of the closed state can be used to distinguish different nucleotides that are incorporated into the primer by dual labeled KF.
The real-time fluorescence change from dual labeled KF was measured in an Applied Photophysics SX20 stopped-flow spectrometer by monitoring changes in AF 488 dye fluorescence following the mixing of the PolI(KF)-DNA binary complex with a nucleotide in the reaction buffer containing 10 mM Tris-HCl, pH 8.0, 50 mM NaCl, 1 mM dithiothreitol and 10 mM MgCl2.
as §1

[3] = system: nucleic acid duplex of extendable 3'-OH primer and AF488 template; assay: FRET-based primer extension assay (AF488 quenching); settings: AF488 quenching over time by Cy3-dCTP incorporation, FIG. 16
Protocol: Functionality of the Cy3AF647 and CF555AF647 conjugates of RB69V510CE766C were confirmed using a FRET-based primer extension assay as follows. Extension was carried out on a nucleic acid duplex composed of an extendable 3′-OH primer and a template with a 7 base overhang. The extendable sequence was TGGAACG. In addition, the template contained an AF488 dye at the 5′ position. The extension reaction mix was composed of 50 mM ACES pH 7.2, 50 mM NaCl, 10 mM DTT, 10 mM Mg′, 1 μM dTTP, 1 μM dGTP, 1 μM dATP and 0.1 μM Cy3-dCTP. Upon extension, the Cy3 quenches the AF488. The control reactions were carried out under the same conditions except that dTTP was removed to prevent extension. A SpectraMax M5 plate reader was used to monitor the AF488 quenching over time. […] The plot confirms that both conjugates were functional in extending a primed nucleic acid.

Sequence of Alexa 488 and 532 dual-labeled KF (K550C/L744C/C907G Klenow Fragment) (P00582 324-928 K550C/L744C/C907G): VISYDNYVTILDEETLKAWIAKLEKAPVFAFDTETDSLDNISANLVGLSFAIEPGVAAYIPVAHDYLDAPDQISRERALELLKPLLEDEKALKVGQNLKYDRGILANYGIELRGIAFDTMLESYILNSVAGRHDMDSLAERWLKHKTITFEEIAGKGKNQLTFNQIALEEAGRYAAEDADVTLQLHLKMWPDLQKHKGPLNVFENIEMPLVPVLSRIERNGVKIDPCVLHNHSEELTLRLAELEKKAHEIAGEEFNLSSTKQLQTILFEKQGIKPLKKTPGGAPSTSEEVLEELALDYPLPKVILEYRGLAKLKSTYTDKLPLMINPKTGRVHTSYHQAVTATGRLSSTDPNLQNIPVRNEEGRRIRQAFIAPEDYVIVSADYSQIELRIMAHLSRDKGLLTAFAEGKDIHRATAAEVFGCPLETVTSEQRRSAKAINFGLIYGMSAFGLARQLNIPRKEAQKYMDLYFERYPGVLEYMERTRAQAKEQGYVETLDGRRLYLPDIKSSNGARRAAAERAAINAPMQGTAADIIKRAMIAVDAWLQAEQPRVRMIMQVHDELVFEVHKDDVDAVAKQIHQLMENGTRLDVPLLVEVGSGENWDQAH

| Molecule | amplitudes and durations for the 5-TAMRA emission shift [1] | time durations of the FRET signal for incorporation into the primer [2] | other results |
| --- | --- | --- | --- |
| Nc1ccn([C@H]2C[C@H](O)[C@@H](COP(=O)(O)OP(=O)(O)OP(=O)(O)O)O2)c(=O)n1 [dCTP] | different amplitudes and durations |  | incorporation detected by wavelength shift for the 5-TAMRA dye ([1]; correct or incorrect nucleotide, FIG. 9A, 9B): could be detected; FRET duration, correct versus incorrect incorporation [2]: could be distinguished |
| Gamma-ANS-dTTP | could be distinguished from each other |  | AF488 fluorescence duration measured for the incorporation [2]: substantially different |
| 1-alpha-borano-dCTP | could be distinguished from each other | substantially different |  |
| Cc1cn([C@H]2C[C@H](O)[C@@H](COP(=O)(O)OP(=O)(O)OP(=O)(O)O)O2)c(=O)[nH]c1=O [dTTP] | different amplitudes and durations; also recorded: could be distinguished from each other |  | AF488 fluorescence duration measured for the incorporation [2]: substantially different |
| Nc1ccn([C@H]2C[C@H](O)[C@@H](COP(O)(=S)OP(=O)(O)OP(=O)(O)O)O2)c(=O)n1 (stereo partly drawn) [1-alpha-thiol-dCTP] |  | substantially different |  |
| Nc1nc2c(ncn2[C@H]2C[C@H](O)[C@@H](COP(=O)(O)OP(=O)(O)OP(=O)(O)O)O2)c(=O)[nH]1 [dGTP] | different amplitudes and durations | very similar | FRET duration, correct versus incorrect incorporation [2]: could be distinguished |
| Nc1ncnc2c1ncn2[C@H]1C[C@H](O)[C@@H](COP(=O)(O)OP(=O)(O)OP(=O)(O)O)O1 [dATP] | different amplitudes and durations | very similar |  |
| O=c1ccn([C@H]2C[C@H](O)[C@@H](COP(=O)(O)OP(=O)(O)OP(=O)(O)O)O2)c(=O)[nH]1 [dUTP] |  | differed |  |
| B1 |  |  | functionality in extending a primed nucleic acid [3]: functional |
| B2 |  |  | functionality in extending a primed nucleic acid [3]: functional |
